# Data: US20240308996A1, “PYRIDOPYRIDINES AND DERIVATIVES THEREOF AS SELECTIVE KINASE INHIBITORS” (University of Sharjah, priority 2023, published 2024)
# How the values were obtained:
# CCRF-CEM = experiment: NCI-60 cell line panel: CCRF-CEM; format: cell-based; conditions: Leukemia
# Procedure: (§1) It was carried out at the NCI, Bethesda, MD, USA, utilizing their standard protocol.
# K-562 = experiment: NCI-60 cell line panel: K-562; format: cell-based; set-up: TGI: unit not given here
# Procedure: as §1
# RPMI-8226 = experiment: NCI-60 cell line panel: RPMI-8226; format: cell-based; conditions: Leukemia
# Procedure: as §1
# HOP-62 = experiment: NCI-60 cell line panel: HOP-62; format: cell-based; conditions: Non-Small Cell Lung Cancer
# Procedure: as §1
# HOP-92 = experiment: NCI-60 cell line panel: HOP-92; format: cell-based; set-up: TGI: unit not given here; conditions: Non-Small Cell Lung Cancer
# Procedure: as §1
# NCI-H226 = experiment: NCI-60 cell line panel: NCI-H226; format: cell-based; conditions: Non-Small Cell Lung Cancer
# Procedure: as §1
# NCI-H522 = experiment: NCI-60 cell line panel: NCI-H522; format: cell-based; set-up: TGI: unit not given here; conditions: Non-Small Cell Lung Cancer
# Procedure: as §1
# HCC-2998 = experiment: NCI-60 cell line panel: HCC-2998; format: cell-based; conditions: Colon Cancer
# Procedure: as §1
# HCT-15 = experiment: NCI-60 cell line panel: HCT-15; format: cell-based; conditions: Colon Cancer
# Procedure: as §1
# HT29 = experiment: NCI-60 cell line panel: HT29; format: cell-based
# Procedure: as §1
# SW-620 = experiment: NCI-60 cell line panel: SW-620; format: cell-based; conditions: Colon Cancer
# Procedure: as §1
# SF-268 = experiment: NCI-60 cell line panel: SF-268; format: cell-based; conditions: CNS Cancer
# Procedure: as §1
# SF-295 = experiment: NCI-60 cell line panel: SF-295; format: cell-based; conditions: CNS Cancer
# Procedure: as §1
# SF-539 = experiment: NCI-60 cell line panel: SF-539; format: cell-based; conditions: CNS Cancer
# Procedure: as §1
# SNB-75 = experiment: NCI-60 cell line panel: SNB-75; format: cell-based; set-up: TGI: unit not given here; conditions: CNS Cancer
# Procedure: as §1
# U251 = experiment: NCI-60 cell line panel: U251; format: cell-based; set-up: TGI: unit not given here
# Procedure: as §1
# MALME-3M = experiment: NCI-60 cell line panel: MALME-3M; format: cell-based; conditions: Melanoma
# Procedure: as §1
# M14 = experiment: NCI-60 cell line panel: M14; format: cell-based; conditions: Melanoma
# Procedure: as §1
# MDA-MB-435 = experiment: NCI-60 cell line panel: MDA-MB-435; format: cell-based; set-up: TGI: unit not given here; conditions: Melanoma
# Procedure: as §1
# UACC-257 = experiment: NCI-60 cell line panel: UACC-257; format: cell-based; conditions: Melanoma
# Procedure: as §1
# IGROV1 = experiment: NCI-60 cell line panel: IGROV1; format: cell-based
# Procedure: as §1
# OVCAR-3 = experiment: NCI-60 cell line panel: OVCAR-3; format: cell-based; conditions: Ovarian Cancer
# Procedure: as §1
# OVCAR-5 = experiment: NCI-60 cell line panel: OVCAR-5; format: cell-based; conditions: Ovarian Cancer
# Procedure: as §1
# NCI/ADR-RES = experiment: NCI-60 cell line panel: NCI/ADR-RES; format: cell-based; set-up: TGI: unit not given here; conditions: Ovarian Cancer
# Procedure: as §1
# RXF 393 = experiment: NCI-60 cell line panel: RXF 393; format: cell-based; conditions: Renal Cancer
# Procedure: as §1
# SN12C = experiment: NCI-60 cell line panel: SN12C; format: cell-based; conditions: Renal Cancer
# Procedure: as §1
# DU-145 = experiment: NCI-60 cell line panel: DU-145; format: cell-based; conditions: Prostate Cancer
# Procedure: as §1
# MCF7 = experiment: NCI-60 cell line panel: MCF7; format: cell-based; conditions: Breast Cancer
# Procedure: as §1
# HS 578T = experiment: NCI-60 cell line panel: HS 578T; format: cell-based
# Procedure: as §1
# HepG2 = experiment: MTT assay, HepG2 HCC cell line; format: cell-based; conditions: Homo sapiens, 48 h, mean of triplicate assays ± SEM
# Procedure: (§2) Two HCC cell lines (Hep3B and HepG2) were used for screening the antiproliferative activity of the synthesized compounds. The cell lines were obtained from the European Collection of Cell Cultures (ECACC, UK) and maintained in Dulbecco's Modified Eagle Medium (DMEM: Sigma-Aldrich) supplemented with 10% fetal bovine serum (FBS) and 1% penicillin/streptomycin and incubated at 37° C. in a 5% CO2 air atmosphere. In addition, WI-38 normal cell line was used to investigate the safety of these compounds.
# (§3) MTT assay was conducted to calculate the IC50 of the compounds following the reported procedure . Briefly, the cells were seeded in 96-well tissue culture plates with a density of 5×10^4 cells/well and incubated overnight at 37° C. in a 5% CO2 air atmosphere. […] DMSO was used as a negative control. After 48 h, the media were aspirated, and replaced with media containing 0.5 mg/mL of MTT tetrazolium dye (Sigma-Aldrich) for 2 h at 37° C. Finally, the media were removed and 200 μL of DMSO was added to solubilize the formazan crystals. Absorbance was then measured at 570 nm using Varioskan Flash multimode plate reader (Thermo Scientific, Massachusetts, USA).
# Hep3B = experiment: MTT assay, Hep3B HCC cell line; format: cell-based; conditions: Homo sapiens, 48 h, mean of triplicate assays ± SEM
# Procedure: as §2, §3
# PDGFRα = PDGFRα (Homo sapiens, UniProt P16234); experiment: Kinase IC50, PDGFRα
# Chain of PDGFRα (P16234 24-1089): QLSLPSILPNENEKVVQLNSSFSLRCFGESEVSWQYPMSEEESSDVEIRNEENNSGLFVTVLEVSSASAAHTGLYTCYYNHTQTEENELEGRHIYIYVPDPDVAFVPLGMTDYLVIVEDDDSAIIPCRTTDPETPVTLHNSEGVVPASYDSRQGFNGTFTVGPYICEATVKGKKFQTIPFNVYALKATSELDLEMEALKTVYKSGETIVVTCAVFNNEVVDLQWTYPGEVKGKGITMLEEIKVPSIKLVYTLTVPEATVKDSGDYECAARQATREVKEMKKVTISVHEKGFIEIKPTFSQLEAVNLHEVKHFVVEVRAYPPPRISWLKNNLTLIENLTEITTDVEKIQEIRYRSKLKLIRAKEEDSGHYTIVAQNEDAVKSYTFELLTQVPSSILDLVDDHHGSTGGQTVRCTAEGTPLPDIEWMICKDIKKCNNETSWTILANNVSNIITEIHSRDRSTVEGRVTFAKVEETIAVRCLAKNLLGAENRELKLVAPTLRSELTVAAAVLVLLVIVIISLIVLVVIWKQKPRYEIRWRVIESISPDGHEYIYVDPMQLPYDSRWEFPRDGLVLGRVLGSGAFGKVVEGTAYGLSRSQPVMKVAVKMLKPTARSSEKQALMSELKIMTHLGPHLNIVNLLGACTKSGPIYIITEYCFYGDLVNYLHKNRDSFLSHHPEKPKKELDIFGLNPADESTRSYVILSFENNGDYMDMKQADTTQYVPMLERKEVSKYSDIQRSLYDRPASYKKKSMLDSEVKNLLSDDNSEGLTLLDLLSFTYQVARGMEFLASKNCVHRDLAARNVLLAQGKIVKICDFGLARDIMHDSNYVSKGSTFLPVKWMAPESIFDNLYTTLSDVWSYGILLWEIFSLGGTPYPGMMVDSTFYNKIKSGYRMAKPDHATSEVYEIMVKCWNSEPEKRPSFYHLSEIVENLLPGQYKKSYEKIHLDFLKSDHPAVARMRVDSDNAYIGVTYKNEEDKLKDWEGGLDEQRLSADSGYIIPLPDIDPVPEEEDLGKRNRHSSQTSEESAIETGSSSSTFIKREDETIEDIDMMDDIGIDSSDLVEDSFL
structure (smiles),measurement,setting,value
"CNC(=O)c1cc(-c2ccc(NC(=O)Nc3ccc(N4CCN(C)CC4)c(C(F)(F)F)c3)cc2)nc2cccnc12 [Compound 13b, N-Methyl-2-(4-(3-(4-(4-methylpiperazin-1-yl)-3-(trifluoromethyl)phenyl)ureido)phenyl)-1,5-naphthyridine-4-carboxamide]",IC50,CCRF-CEM; Homo sapiens,3.16 µM
same,TGI,CCRF-CEM; total growth inhibition,74.1 µM
same,IC50,"K-562; Homo sapiens, K562, Leukemia",2120 nM
same,TGI,"K-562; Leukemia, total growth inhibition",5.35
same,IC50,RPMI-8226; Homo sapiens,3.85 µM
same,TGI,RPMI-8226; total growth inhibition,25 µM
same,IC50,HOP-62; Homo sapiens,16.4 µM
same,TGI,HOP-62; total growth inhibition,32.2 µM
same,IC50,HOP-92; Homo sapiens,6.54 µM
same,TGI,HOP-92; total growth inhibition,100
same,IC50,NCI-H226; Homo sapiens,18 µM
same,TGI,NCI-H226; total growth inhibition,39.7 µM
same,IC50,NCI-H522; Homo sapiens,16.5 µM
same,TGI,NCI-H522; total growth inhibition,31.1
same,TGI,HCC-2998; total growth inhibition,34.6 µM
same,IC50,HCC-2998; Homo sapiens,18 µM
same,TGI,HCT-15; total growth inhibition,4.33 µM
same,IC50,HCT-15; Homo sapiens,2070 nM
same,TGI,"HT29; Colon Cancer, total growth inhibition",4.19 µM
same,IC50,"HT29; Homo sapiens, HT-29, Colon Cancer",1920 nM
same,TGI,SW-620; total growth inhibition,4.62 µM
same,IC50,SW-620; Homo sapiens,2110 nM
same,TGI,SF-268; total growth inhibition,39.2 µM
same,IC50,SF-268; Homo sapiens,17.5 µM
same,TGI,"SF-295; total growth inhibition, unit assumed",36.9 µM
same,IC50,SF-295; Homo sapiens,18 µM
same,TGI,SF-539; total growth inhibition,26.5 µM
same,IC50,SF-539; Homo sapiens,13.6 µM
same,TGI,SNB-75; total growth inhibition,28.4
same,IC50,SNB-75; Homo sapiens,14.9 µM
same,TGI,"U251; CNS Cancer, total growth inhibition",14.7
same,IC50,"U251; Homo sapiens, U-251, CNS Cancer",3.43 µM
same,IC50,MALME-3M; Homo sapiens,1680 nM
same,TGI,"MALME-3M; total growth inhibition, in µM (unit assumed)",3.21
same,IC50,M14; Homo sapiens,1790 nM
same,TGI,M14; total growth inhibition,3.71 µM
same,IC50,MDA-MB-435; Homo sapiens,1750 nM
same,TGI,MDA-MB-435; total growth inhibition,3.27
same,IC50,UACC-257; Homo sapiens,15.3 µM
same,TGI,UACC-257; total growth inhibition,28.8 µM
same,IC50,"IGROV1; Homo sapiens, IGROV-1, Ovarian Cancer",17.7 µM
same,TGI,"IGROV1; Ovarian Cancer, total growth inhibition",36.6 µM
same,IC50,OVCAR-3; Homo sapiens,9.59 µM
same,TGI,OVCAR-3; total growth inhibition,25.8 µM
same,IC50,OVCAR-5; Homo sapiens,15.6 µM
same,TGI,OVCAR-5; total growth inhibition,29 µM
same,IC50,NCI/ADR-RES; Homo sapiens,14.2 µM
same,TGI,NCI/ADR-RES; total growth inhibition,45.4
same,IC50,RXF 393; Homo sapiens,3.38 µM
same,TGI,RXF 393; total growth inhibition,15 µM
same,IC50,SN12C; Homo sapiens,16.7 µM
same,TGI,SN12C; total growth inhibition,34.7 µM
same,IC50,DU-145; Homo sapiens,17.6 µM
same,TGI,DU-145; total growth inhibition,35.6 µM
same,TGI,MCF7; total growth inhibition,3.45 µM
same,IC50,MCF7; Homo sapiens,1670 nM
same,TGI,"HS 578T; Breast Cancer, HS 578T, total growth inhibition",38.9 µM
same,IC50,"HS 578T; Homo sapiens, Hs-578T",15 µM
same,IC50,HepG2,1480 ± 90 nM
same,IC50,Hep3B,2320 ± 20 nM
same,IC50,PDGFRα,972.4 ± 1.3 nM
